Data published in patent EP4603105A1, “PHARMACEUTICAL COMPOSITION CONTAINING CYCLIC COMPOUND HAVING SELECTIVE KRAS INHIBITORY EFFECT AGAINST HRAS AND NRAS” (CHUGAI SEIYAKU KABUSHIKI KAISHA, priority 2022, dated 2024).
*1 amine or outer side, *2 acyl side, *3 side chain or, on linkers, in order; H or OH if unused. Where a SMILES comes first, the peptide text is derived from it. Bridges are numbered along the chain shown (N, C = ends). [ ]: non-standard residue; d: D form. The star is where a group is joined. hPhe(3-Cl-4-CF3) = N[C@@H](CCc1ccc(C(F)(F)F)c(Cl)c1)C(=O)O; NPrPhe(4-CF3) = CCCN[C@@H](Cc1ccc(C(F)(F)F)cc1)C(=O)O; X13 = CCCN([C@@H](COC1CCC1)C(=O)[*:2])[*:1]; NMeGly(cPent) = CN[C@H](C(=O)O)C1CCCC1; Hyp = O=C(O)[C@@H]1C[C@@H](O)CN1; NMeD = CN[C@@H](CC(=O)O)C(=O)O; NMeL = CN[C@@H](CC(C)C)C(=O)O; Morpholide = C1CN(*)CCO1; Ac5c = NC1(C(=O)O)CCCC1; Aze = O=C(O)[C@@H]1CCN1; Ac4c = NC1(C(=O)O)CCC1; Sar = CNCC(=O)O

Experiments:
[1] = target: GDP-bound NRAS wild-type protein (Homo sapiens, UniProt P01111); assay: Binding to NRAS by surface plasmon resonance (SPR), KD and KD ratio to KRAS
Chain of GDP-bound NRAS wild-type protein (P01111 whole entry): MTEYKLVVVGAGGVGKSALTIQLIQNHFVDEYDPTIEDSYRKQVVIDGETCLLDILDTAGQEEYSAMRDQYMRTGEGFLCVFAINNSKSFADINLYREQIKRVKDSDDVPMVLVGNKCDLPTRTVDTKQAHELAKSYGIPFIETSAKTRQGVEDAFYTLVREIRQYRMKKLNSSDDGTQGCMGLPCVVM
Procedure: (§1) Surface plasmon resonance was used to analyze the binding affinity of compounds for KRAS, NRAS, and HRAS. The apparatus used was Biacore 8K, 8K+, or T200 (GE Healthcare), and the running buffer used was HBS (10 mM HEPES-NaOH, 150 mM NaCl, pH 7.4) containing 1 mM DTT, 10 mM MgCl2, 0.01% Tween 20, 10 µM GDP, and 4% DMSO.
(§2) Biotinylated Avi-tag fusion KRAS, NRAS, and HRAS proteins were expressed in E. coli BL21 (DE3) strains, and after cells were homogenized, they were purified using Streptavidin Mutein Matrix and Superdex 75. After purification, GDP-loaded KRAS, NRAS, and HRAS proteins were immobilized on the surface of Sensor Chip CAP (Cytiva) coated with Biotin CAPture Reagent in an immobilization amount of about 100 to 300 RU. Binding of each compound was evaluated by the Single Cycle Kinetics method, and a running buffer or a compound solution was added to the RAS protein non-immobilized surface and the immobilized surface to obtain a binding response. The flow rate was set to 100 µL/min, and in the compound-adding cycle, compound solutions having different concentrations were intermittently added for 75 seconds each, starting from a low concentration. […] In the blank cycle, a running buffer was intermittently added and not the compound solution. The Biotin CAPture Reagent and RAS proteins were immobilized for each cycle, and at the end of each cycle, the sensor chip was regenerated by the regeneration solution appended to the Biotin CAPture Kit (Cytiva). Measurement was carried out at 30°C.
(§3) The resulting sensorgram was subjected to curve fitting based on a 1:1 binding model on Biacore Insight Evaluation Software or T200 Evaluation Software, and thereby the dissociation constant KD of each compound with respect to KRAS, NRAS, and HRAS was determined. […] Blank indicates a compound from which the KD value with respect to NRAS or HRAS was not obtained.

[2] = target: HRAS wild-type protein (Homo sapiens, UniProt P01112); assay: Binding to HRAS by surface plasmon resonance (SPR), KD and KD ratio to KRAS
Chain of HRAS wild-type protein (P01112 whole entry): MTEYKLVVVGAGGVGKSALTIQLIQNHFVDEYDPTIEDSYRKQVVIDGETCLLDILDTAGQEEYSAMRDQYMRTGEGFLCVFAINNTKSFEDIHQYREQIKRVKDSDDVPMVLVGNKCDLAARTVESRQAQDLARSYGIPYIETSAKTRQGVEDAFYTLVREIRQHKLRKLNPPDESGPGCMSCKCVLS
Procedure: as §1, §2, §3

[3] = tested on: human lung cancer strain NCI-H441; assay type: cell-based
Procedure: A test compound was dispensed into a U-bottom 384-well plate as 40 nL serially diluted dimethyl sulfoxide solutions using a liquid handler Echo (LABCYTE). […] This cell suspension was dispensed in an amount of 40 µL per well into a plate containing the test compound, and cultured at 37°C in a 5% carbon dioxide gas incubator. Four days later, 20 µL of CellTiter-Glo (registered trademark) (Promega) was added to each well and […] was measured. […]

[4] = ratio of KD for GDP-bound NRAS wild-type protein to KD for KRAS
[5] = ratio of KD for HRAS wild-type protein to KD for KRAS
[6] = ratio of the KD value with respect to GDP-bound NRAS wild-type protein to the KD value with respect to KRAS
[7] = ratio of the KD value with respect to HRAS wild-type protein to the KD value with respect to KRAS
[8] = ratio of KD value for GDP-bound NRAS wild-type protein to KD value for KRAS (SPR)
[9] = ratio of KD value for HRAS wild-type protein to KD value for KRAS (SPR)

Row | SMILES | IC50 [3] | NRAS /KRAS [1, 4] | HRAS /KRAS [2, 5] | NRAS /KRAS [1, 6] | HRAS /KRAS [2, 7] | NRAS /KRAS [1, 8] | HRAS /KRAS [2, 9]
1 | CCO[C@@H]1C[C@H]2C(=O)NC3(CC(C)(C)C3)C(=O)N(C)[C@@H](C3CCCC3)C(=O)N(C)[C@H](C(=O)N3CCCCC3)CC(=O)N(C)[C@H]3CCC/C=C/c4ccc(cc4)C[C@@H](C(=O)N(C)CC(=O)N[C@@H](CCc4ccc(Cl)c(Cl)c4)C(=O)N2C1)N1CC/C=C\C[C@@H](C1=O)N(C)C(=O)CN(C)C(=O)[C@H]([C@@H](C)CC)NC3=O [PP2578] | 0.0177 µM | AA (a compound having 20 or more is denoted as AA) | A (a compound having 10 or more and less than 20 is denoted as A) | – | – | – | –
2 | CCO[C@@H]1C[C@H]2C(=O)N(C)C3(CCC3)C(=O)N(C)[C@@H](C(CC)CC)C(=O)N(C)[C@H](C(=O)N(C)C)CC(=O)N(C)[C@@H](COC)C(=O)N[C@@H]([C@@H](C)CC)C(=O)N(C3CC3)CC(=O)N(C)[C@H]3C/C=C\CCN(C3=O)[C@@H](CC3CCCCC3)C(=O)N(C)CC(=O)N[C@@H](CCc3ccc(C(F)(F)F)c(OC)c3)C(=O)N2C1 [PP2339] | 0.0593 µM | – | – | A (a compound having 10 or more and less than 20 is denoted as A) | A (a compound having 10 or more and less than 20 is denoted as A) | – | –
3 | CCO[C@@H]1C[C@H]2C(=O)N(C)C3(CCC3)C(=O)N(C)[C@@H](C(CC)CC)C(=O)N(C)[C@H](C(=O)N(C)C)CC(=O)N(C)[C@@H](COC)C(=O)N[C@@H]([C@@H](C)CC)C(=O)N(C)CC(=O)N(C)[C@H]3C/C=C\CCN(C3=O)[C@@H](CC3CCCCC3)C(=O)N(C)CC(=O)N[C@@H](CCc3ccc(C(F)(F)F)c(OC)c3)C(=O)N2C1 [PP2335] | 0.0642 µM | – | – | A (a compound having 10 or more and less than 20 is denoted as A) | A (a compound having 10 or more and less than 20 is denoted as A) | – | –
4 | CC[C@H](C)[C@@H]1NC(=O)[C@H](CC(C)C)N(C)C(=O)C[C@@H](C(=O)N(C)C)N(C)C(=O)[C@H](C2CCCC2)N(C)C(=O)C2(CCCC2)NC(=O)[C@@H]2CCCN2C(=O)[C@H](CCc2ccc(C(F)(F)F)c(Cl)c2)NC(=O)CN(C)C(=O)[C@H](Cc2ccc(C)cc2)N2CC/C=C(/C)C[C@@H](C2=O)N(C)C(=O)CN(C)C1=O [PP0616] | 0.0738 µM | – | – | B (a compound having 3 or more and less than 10 is denoted as B) | B (a compound having 3 or more and less than 10 is denoted as B) | – | –
5 | CCO[C@@H]1C[C@H]2C(=O)NC3(CCC3)C(=O)N(C)[C@@H](C(CC)CC)C(=O)N(C)[C@H](C)CC(=O)N(C)[C@@H](CC3CC3)C(=O)N[C@@H]([C@@H](C)CC)C(=O)N(C)CC(=O)N(C)[C@H]3C/C=C\CCN(C3=O)[C@@H](Cc3ccc(F)cc3)C(=O)N(C)CC(=O)N[C@@H](CCc3cc(F)c(C(F)(F)F)c(F)c3)C(=O)N2C1 [PP1521] | 0.173 µM | – | – | – | – | A (a compound having 10 or more and less than 20 is denoted as A) | B (a compound having 3 or more and less than 10 is denoted as B)
6 | CCO[C@@H]1C[C@H]2C(=O)NC3(CC(C)(C)C3)C(=O)N(C)[C@@H](C(CC)CC)C(=O)N(C)[C@H](C(=O)N(C)C)CC(=O)N(C)[C@@H](CC3CC3)C(=O)N[C@@H]([C@@H](C)CC)C(=O)N(C)CC(=O)N(C)[C@H]3C/C=C\CCN(C3=O)[C@@H](Cc3ccc(C(F)(F)F)cc3)C(=O)N(C)CC(=O)N[C@@H](CCc3ccc(C(F)(F)F)c(OC)c3)C(=O)N2C1 [PP2155] | 0.0107 µM | – | – | A (a compound having 10 or more and less than 20 is denoted as A) | B (a compound having 3 or more and less than 10 is denoted as B) | – | –
7 | CCCC[C@H]1C(=O)N[C@@H]([C@@H](C)CC)C(=O)N(C)CC(=O)N(C)[C@H]2C/C=C\CCN(C2=O)[C@@H](Cc2ccc(C(F)(F)F)cc2)C(=O)N(C)CC(=O)N[C@@H](CCc2cc(F)c(C(F)(F)F)c(F)c2)C(=O)N2C[C@H](OCC)C[C@H]2C(=O)NC2(CCC2)C(=O)N(C)[C@@H](C2CCCC2)C(=O)N(C)[C@H](C(=O)N(C)CCC)CC(=O)N1C [PP1704] | 0.0103 µM | – | – | – | – | A (a compound having 10 or more and less than 20 is denoted as A) | A (a compound having 10 or more and less than 20 is denoted as A)
8 | CCCN1C(=O)CN(C)C(=O)CN(C)C(=O)[C@H]([C@@H](C)CC)NC(=O)[C@H](CC(C)C)N(C)C(=O)C[C@@H](C(=O)N(C)C)NC(=O)[C@H](C2CCCC2)N(C)C(=O)C2(CCCC2)NC(=O)[C@@H]2C[C@@H](OCC)CN2C(=O)[C@H](CCc2ccc(C(F)(F)F)c(Cl)c2)NC(=O)CN(C)C(=O)[C@@H]1Cc1ccc(C(F)(F)F)cc1 [PP0359] ([NMeL]I[Sar][Sar][NPrPhe(4-CF3)][Sar][hPhe(3-Cl-4-CF3)][Hyp](Et)[Ac5c][NMeGly(cPent)]D-NMe2; lactam N-11) | 0.0331 µM | B (a compound having 3 or more and less than 10 is denoted as B) | B (a compound having 3 or more and less than 10 is denoted as B) | – | – | – | –
9 | CCCN1C(=O)CN(C)C(=O)CN(C)C(=O)[C@H]([C@@H](C)CC)NC(=O)[C@H](CC(C)C)N(C)C(=O)C[C@@H](C(=O)N2CCOCC2)N(C)C(=O)[C@H](C2CCCC2)N(C)C(=O)C2(CCC2)NC(=O)[C@@H]2CCCN2C(=O)[C@H](CCc2ccc(C(F)(F)F)c(Cl)c2)NC(=O)CN(C)C(=O)[C@@H]1COC1CCC1 [PP1816] ([NMeL]I[Sar][Sar][X13][Sar][hPhe(3-Cl-4-CF3)]P[Ac4c][NMeGly(cPent)][NMeD]-Morpholide; lactam N-11) | 0.0638 µM | – | – | – | – | B (a compound having 3 or more and less than 10 is denoted as B) | C (A compound having a KD ratio of 0.1 or more and less than 3 is denoted as C)

Molecules with a lower IC50 [3], results first:

Row | IC50 [3] | SMILES | NRAS /KRAS [1, 4] | HRAS /KRAS [2, 5] | NRAS /KRAS [1, 6] | HRAS /KRAS [2, 7] | NRAS /KRAS [1, 8] | HRAS /KRAS [2, 9]
10 | 0.0081 µM | CCOC[C@H]1C(=O)N[C@@H]([C@@H](C)CC)C(=O)N(C)CC(=O)N(C)[C@H]2C/C=C\CCN(C2=O)[C@@H](Cc2ccc(C(F)(F)F)cc2)C(=O)N(C)CC(=O)N[C@@H](CCc2cc(F)c(C(F)(F)F)c(F)c2)C(=O)N2C[C@H](OCC)C[C@H]2C(=O)NC2(CC(C)(C)C2)C(=O)N(C)[C@@H](C2CCCC2)C(=O)N(C)[C@H](C(=O)N(C)CC)CC(=O)N1C [PP2032] | – | – | A (a compound having 10 or more and less than 20 is denoted as A) | B (a compound having 3 or more and less than 10 is denoted as B) | – | –
11 | 0.008 µM | CCC[C@H]1C(=O)N[C@@H]([C@@H](C)CC)C(=O)N(C)CC(=O)N(C)[C@H]2C/C=C\CCN(C2=O)[C@@H](Cc2ccc(C(F)(F)F)cc2)C(=O)N(C)CC(=O)N[C@@H](CCc2ccc3sc(F)c(C)c3c2)C(=O)N2C[C@H](OCC)C[C@H]2C(=O)NC2(CC(C)(C)C2)C(=O)N(C)[C@@H](C(CC)CC)C(=O)N(C)[C@H](C(=O)N(C)C)CC(=O)N1C [PP2892] | A (a compound having 10 or more and less than 20 is denoted as A) | A (a compound having 10 or more and less than 20 is denoted as A) | – | – | – | –
12 | 0.0079 µM | CC[C@H](C)[C@@H]1NC(=O)[C@H](CC2CC2)N(C)C(=O)C[C@@H](C(=O)N(C)C)N(C)C(=O)[C@H](C2CCCC2)N(C)C(=O)C2(CC(C)(C)C2)NC(=O)[C@@H]2CC(F)(F)CN2C(=O)[C@H](CCc2cc(F)c(C(F)(F)F)c(F)c2)NC(=O)CN(C)C(=O)[C@H](Cc2ccc(C(F)(F)F)cc2)N2CC/C=C\C[C@@H](C2=O)N(C)C(=O)CN(C)C1=O [PP1713] | – | – | – | – | A (a compound having 10 or more and less than 20 is denoted as A) | A (a compound having 10 or more and less than 20 is denoted as A)
13 | 0.0014 µM | CCCN1C(=O)[C@@H]2CCN2C(=O)CN(C)C(=O)[C@H]([C@@H](C)CC)NC(=O)[C@H](CC(C)C)N(C)C(=O)C[C@@H](C(=O)N(C)C)N(C)C(=O)[C@H](C2CCCC2)N(C)C(=O)C2(CCCC2)NC(=O)[C@@H]2C[C@@H](OCC)CN2C(=O)[C@H](CCc2ccc(C(F)(F)F)c(Cl)c2)NC(=O)CN(C)C(=O)[C@@H]1Cc1ccc(C(F)(F)F)cc1 [PP0444] ([NMeL]I[Sar][Aze][NPrPhe(4-CF3)][Sar][hPhe(3-Cl-4-CF3)][Hyp](Et)[Ac5c][NMeGly(cPent)][NMeD]-NMe2; lactam N-11) | – | – | C (A compound having a KD ratio of 0.1 or more and less than 3 is denoted as C) | C (A compound having a KD ratio of 0.1 or more and less than 3 is denoted as C) | – | –
